According to paper PMC6691786, “In vitro anticancer potentiality and molecular modelling study of novel amino acid derivatives based on N^1,N^3-bis-(1-hydrazinyl-1-oxopropan-2-yl) isophthalamide” (Journal of Enzyme Inhibition and Medicinal Chemistry, 2019):
“Also recorded” adds a separate entry of the source.

Experiments:
HCT-116 cell line = test: MTT cytotoxicity assay, colon carcinoma; type: cell-based; conditions: Homo sapiens; for inhibition at 100 µM: HCT-116, at 100 µM; for IC50: HCT-116, MTT, 48-h incubation, read-out: IC50 (mean ± SD)
Description: (§1) Human colon carcinoma (HCT-116 cell line), human lung carcinoma (A-549), human breast carcinoma (MCF-7 cell line) and human skin normal cell line (BJ-1) were obtained from Karolinska Center, Department of Oncology and Pathology, Karolinska Institute and Hospital, Stockholm, Sweden. IC50 values were performed using SPSS computer program (SPSS for windows, statistical analysis software package/version 9/1989 SPSS Inc., Chicago, IL).
(§2) The procedure was done in laminar air flow cabinet bio safety class II level. Culturing and sub culturing were carried out according to Thabrew et al.[32]. Doxorubicin was used as a positive control. DMSO used as negative control. Cell Viability Assay was done according to Selim et al.[33] as described by Mosmann et al.[34]. The cells were seeded at concentration of 10 × 10^3 cells per well in case of MCF-7, 20 × 10^3 cells/well in case of HCT-116 cell lines using 96-well plates at 37 °C. After 48-h incubation, the medium was aspirated and 40 μl MTT salt (2.5 mg/ml) were added and further incubated for 4 h. About 200 μl 10% sodium dodecyl sulphate (SDS) was added. The absorbance was measured at 595 nm.

A-549 cell line = test: MTT cytotoxicity assay, lung carcinoma; type: cell-based; conditions: Homo sapiens, A549; for inhibition at 100 µM: A-549, at 100 µM
Description: as §1, §2

MCF-7 cell line = test: MTT cytotoxicity assay, breast carcinoma; type: cell-based; conditions: Homo sapiens, MCF7; for inhibition at 100 µM: MCF-7, at 100 µM
Description: as §1, §2

CASP-7 = test: Human caspase-7 (CASP-7) estimation ELISA in MCF-7 cells; type: cell-based
Description: The micro ELISA plate provided in this kit pre-coated with CASP7-specific antibody. A biotinylated CASP7 antibody and Avidin–HRP conjugate was added. Aspire the excess components. The substrate solution was added wells that contain CASP7, biotinylated detection antibody and Avidin–HRP conjugate will appear blue in colour. The colour turns yellow followed the addition of sulphuric acid solution. The optical density (OD) was measured at a wavelength of 450 nm ± 2 nm[38].

tubulin beta (TUBb) = test: ELISA kit for tubulin beta (TUBb) in MCF-7 cells; type: cell-based, human; conditions: in comparison with colchicine
Description: MCF-7 cells were inoculated at concentration 1.2–1.8 × 10,000 cells/well using DMEM (supplemented with 10% FBS and 1% penicillin–streptomycin). Tested compound added for 18–24 h before the enzyme assay for Tubulin. Avidin conjugated to HRP is added to each microplate well and incubated. […] Sulphuric acid solution added to terminate enzymatic reaction. Colour change is measured spectrophotometrically at a wavelength of 450 nm ± 10 nm[39].

[1] = test system: BJ-1 normal skin fibroblasts cell line; test: MTT cytotoxicity on normal skin cell line; type: cell-based, human; conditions: BJ-1 normal skin cells, at 100 µM
Description: as §1, §2

CDK-2 = CDK-2 (Homo sapiens, UniProt P24941); test: In vitro kinase inhibition ELISA assay; type: biochemical; conditions: CDK-2 kinase, read-out: IC50 (mean ± SD)
[2] = test system: HCT-116, A-549 and MCF-7 cell lines; test: Preliminary cytotoxicity screen on the three tumour cell lines (MTT); type: cell-based, human; conditions: for inhibition at 100 µM: Homo sapiens, range over HCT-116, A-549, MCF-7, read-out: % of inhibition towards the three tested cancer cell lines; for cytotoxic activity (in words, SAR): HCT-116, A-549, MCF-7, compared with related derivatives
Description: as §1, §2

BCL-2 = BCL-2 level ELISA in MCF-7 cells; type: cell-based, human; conditions: compound at IC50 for 24 h, compared to control
Description: BCL-2 in the samples and standards were estimated according to Barbareschi et al.. A biotin-conjugated antibody was added followed by streptavidin-HRP. The reaction is then terminated by addition of acid and absorbance was measured at 450 nm.

p53 = p53 level ELISA in MCF-7 cells; type: cell-based, human; conditions: compound at IC50 for 24 h, compared to control
Description: Human p53 present in the sample or standard binds to antibodies adsorbed to the microwells. A biotin-conjugated is added. After incubation and dispense of unbound biotin-conjugated streptavidin HRP is added. The reaction is terminated by addition of acid and absorbance is measured at 450 nm[37].

MCF-7 cells = test: DNA fragmentation by DPA assay; type: cell-based, human
Description: DNA fragmentation of the cells was assayed, as previously described[40]^,[41]. Briefly, the cells were lysed with 20 mM EDTA, 0.5% (v/v) Triton X-100, and […] Tris (pH 8.0) for 15 min on ice. The cells were then centrifuged for 20 min, at 27,000×g, to separate intact chromatin from DNA fragments. The amount of DNA was measured by using a diphenylamine reagent. The optical density is measured at 600 nm.

EGFR = EGFR (Homo sapiens, UniProt P00533); test: In vitro kinase inhibition ELISA assay; type: biochemical; conditions: read-out: IC50 (mean ± SD)
Description: The in vitro enzyme inhibition assessment for compound 5 was performed at confirmatory diagnostic unit, Vacsera, Egypt.

VEGFR-2 = VEGFR-2 (Homo sapiens, UniProt P35968); test: In vitro kinase inhibition ELISA assay; type: biochemical; conditions: VEGFR-2 kinase, read-out: IC50 (mean ± SD)
c-kit = c-kit (Homo sapiens, UniProt P10721); test: In vitro kinase inhibition ELISA assay; type: biochemical; conditions: read-out: IC50 (mean ± SD)
Bax = Bax protein level ELISA in MCF-7 cells; type: cell-based, human; conditions: compound at IC50 for 24 h
Description: Bax protein levels were evaluated according to Onur et al.. Monoclonal antibody specific to Bax captured on the plate is added. After incubation, Strep avid in conjugated to Horseradish peroxidase (HRP) is added. The reaction is terminated by the addition of acid and optical density of the colour produced measured at 450 nm.

Sequence of c-kit (P10721 26-976): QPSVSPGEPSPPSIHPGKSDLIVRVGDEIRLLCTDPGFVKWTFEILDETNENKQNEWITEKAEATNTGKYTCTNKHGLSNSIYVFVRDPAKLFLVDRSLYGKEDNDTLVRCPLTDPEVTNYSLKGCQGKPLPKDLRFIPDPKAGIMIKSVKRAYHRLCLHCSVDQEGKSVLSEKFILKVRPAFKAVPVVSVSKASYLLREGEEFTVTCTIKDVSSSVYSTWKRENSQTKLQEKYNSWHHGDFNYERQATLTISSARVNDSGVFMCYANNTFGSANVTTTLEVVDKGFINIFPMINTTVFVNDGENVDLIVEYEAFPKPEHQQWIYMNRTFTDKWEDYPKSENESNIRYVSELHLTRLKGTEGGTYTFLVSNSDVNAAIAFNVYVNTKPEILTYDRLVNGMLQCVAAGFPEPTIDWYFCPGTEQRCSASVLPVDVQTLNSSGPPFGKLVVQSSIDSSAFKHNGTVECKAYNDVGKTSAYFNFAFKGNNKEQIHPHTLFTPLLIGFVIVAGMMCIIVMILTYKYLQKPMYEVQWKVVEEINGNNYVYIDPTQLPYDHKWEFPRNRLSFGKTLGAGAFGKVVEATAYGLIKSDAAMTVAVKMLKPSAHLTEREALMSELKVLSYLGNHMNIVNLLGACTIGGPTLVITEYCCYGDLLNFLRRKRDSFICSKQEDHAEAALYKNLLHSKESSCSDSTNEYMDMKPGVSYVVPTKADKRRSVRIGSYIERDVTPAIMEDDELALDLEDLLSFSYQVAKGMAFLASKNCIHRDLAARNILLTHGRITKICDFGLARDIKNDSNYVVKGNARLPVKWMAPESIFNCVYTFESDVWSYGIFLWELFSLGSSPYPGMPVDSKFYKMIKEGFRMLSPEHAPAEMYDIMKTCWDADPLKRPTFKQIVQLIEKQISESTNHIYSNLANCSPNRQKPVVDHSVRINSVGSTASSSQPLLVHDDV
Sequence of VEGFR-2 (P35968 20-1356): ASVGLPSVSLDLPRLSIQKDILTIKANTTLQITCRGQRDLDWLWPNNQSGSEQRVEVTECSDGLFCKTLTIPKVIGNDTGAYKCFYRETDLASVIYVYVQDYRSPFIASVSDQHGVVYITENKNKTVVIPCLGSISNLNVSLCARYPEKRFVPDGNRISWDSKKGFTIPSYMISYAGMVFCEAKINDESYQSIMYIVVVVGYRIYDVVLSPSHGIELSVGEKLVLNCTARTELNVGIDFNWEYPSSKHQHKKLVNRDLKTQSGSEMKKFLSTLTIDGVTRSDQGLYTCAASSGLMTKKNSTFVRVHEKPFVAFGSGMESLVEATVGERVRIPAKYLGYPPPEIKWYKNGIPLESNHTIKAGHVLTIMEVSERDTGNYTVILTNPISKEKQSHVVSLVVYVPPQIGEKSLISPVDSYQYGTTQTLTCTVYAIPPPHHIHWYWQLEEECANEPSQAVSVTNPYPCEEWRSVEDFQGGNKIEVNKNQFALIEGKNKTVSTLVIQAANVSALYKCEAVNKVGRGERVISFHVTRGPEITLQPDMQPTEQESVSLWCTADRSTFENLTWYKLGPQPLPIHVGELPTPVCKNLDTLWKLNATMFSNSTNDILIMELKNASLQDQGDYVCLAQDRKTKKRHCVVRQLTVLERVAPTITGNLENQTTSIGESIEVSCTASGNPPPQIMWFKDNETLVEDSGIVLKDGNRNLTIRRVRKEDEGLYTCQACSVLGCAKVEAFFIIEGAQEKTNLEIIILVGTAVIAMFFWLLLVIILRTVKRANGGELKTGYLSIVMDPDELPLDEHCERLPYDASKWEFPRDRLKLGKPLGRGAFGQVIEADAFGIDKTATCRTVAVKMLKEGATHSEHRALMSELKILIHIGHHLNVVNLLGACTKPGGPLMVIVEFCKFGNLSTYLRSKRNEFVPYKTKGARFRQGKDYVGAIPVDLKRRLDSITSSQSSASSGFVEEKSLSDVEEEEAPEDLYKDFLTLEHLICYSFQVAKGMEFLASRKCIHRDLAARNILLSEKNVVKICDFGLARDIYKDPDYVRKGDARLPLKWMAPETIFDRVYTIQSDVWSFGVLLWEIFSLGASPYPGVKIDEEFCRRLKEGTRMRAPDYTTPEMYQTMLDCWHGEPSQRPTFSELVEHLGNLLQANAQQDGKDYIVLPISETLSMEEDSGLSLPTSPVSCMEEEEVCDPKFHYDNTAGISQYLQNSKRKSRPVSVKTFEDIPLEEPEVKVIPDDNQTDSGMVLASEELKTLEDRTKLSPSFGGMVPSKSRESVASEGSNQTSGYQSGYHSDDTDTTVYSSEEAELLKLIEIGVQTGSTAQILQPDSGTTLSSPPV
Sequence of EGFR (P00533 25-1210): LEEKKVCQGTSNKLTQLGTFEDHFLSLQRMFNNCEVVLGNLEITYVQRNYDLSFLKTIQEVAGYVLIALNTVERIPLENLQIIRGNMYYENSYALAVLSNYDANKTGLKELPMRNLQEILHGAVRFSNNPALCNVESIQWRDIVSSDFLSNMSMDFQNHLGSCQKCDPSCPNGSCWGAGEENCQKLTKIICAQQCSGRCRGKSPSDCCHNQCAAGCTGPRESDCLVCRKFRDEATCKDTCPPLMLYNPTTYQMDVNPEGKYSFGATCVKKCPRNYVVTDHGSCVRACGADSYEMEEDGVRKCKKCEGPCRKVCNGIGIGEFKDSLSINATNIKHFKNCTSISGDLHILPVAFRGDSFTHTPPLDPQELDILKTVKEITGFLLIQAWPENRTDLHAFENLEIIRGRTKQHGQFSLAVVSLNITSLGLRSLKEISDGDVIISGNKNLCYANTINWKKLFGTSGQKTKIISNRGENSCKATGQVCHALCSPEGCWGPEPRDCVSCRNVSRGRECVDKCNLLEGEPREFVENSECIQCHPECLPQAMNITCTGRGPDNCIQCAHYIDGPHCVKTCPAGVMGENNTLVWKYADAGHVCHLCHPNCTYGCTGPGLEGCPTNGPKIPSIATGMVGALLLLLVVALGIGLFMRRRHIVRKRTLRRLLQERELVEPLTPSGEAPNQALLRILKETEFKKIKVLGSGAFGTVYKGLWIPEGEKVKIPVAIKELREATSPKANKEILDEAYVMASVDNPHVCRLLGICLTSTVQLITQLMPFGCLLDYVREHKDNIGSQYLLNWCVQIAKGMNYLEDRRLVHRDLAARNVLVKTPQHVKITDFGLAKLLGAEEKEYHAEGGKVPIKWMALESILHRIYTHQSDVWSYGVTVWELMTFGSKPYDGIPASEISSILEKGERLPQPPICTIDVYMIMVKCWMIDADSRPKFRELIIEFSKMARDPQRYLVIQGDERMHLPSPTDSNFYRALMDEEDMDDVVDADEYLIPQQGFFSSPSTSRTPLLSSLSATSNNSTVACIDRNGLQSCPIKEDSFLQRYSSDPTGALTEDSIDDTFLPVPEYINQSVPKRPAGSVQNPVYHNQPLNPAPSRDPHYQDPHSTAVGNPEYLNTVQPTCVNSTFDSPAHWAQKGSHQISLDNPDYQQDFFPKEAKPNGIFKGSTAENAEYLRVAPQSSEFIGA

SMILES: COc1ccc(C2SCC(=O)N2NC(=O)C(C)NC(=O)c2cccc(C(=O)NC(C)C(=O)NN3C(=O)CSC3c3ccc(OC)cc3)c2)cc1 (centres unmarked)
- melting point: 242 to 244 °C

SMILES: CC(NC(=O)c1cccc(C(=O)NC(C)C(=O)NN)c1)C(=O)NN (centres unmarked) [Compound 4, N^1,N^3-bis-(1-hydrazinyl-1-oxopropan-2-yl) isophthalamide]
- melting point: 232 to 234 °C
- inhibition at 100 µM (HCT-116 cell line): 2.3%
- inhibition at 100 µM (A-549 cell line): 0.9%
- inhibition at 100 µM (MCF-7 cell line): 1.8%

SMILES: CC(NC(=O)c1cccc(C(=O)NC(C)C(=O)N/N=C2/C(=O)Nc3ccccc32)c1)C(=O)N/N=C1\C(=O)Nc2ccccc21 (centres unmarked) [Compound 5, N^1-(1-oxo-1-(-2-(2-oxoindolin-3-ylidene) hydrazinyl)propan-2-yl)-N^3-(1-oxo-1-(-2-(2-oxoindolin-3-ylidene) hydrazinyl)propan-2-yl) isophthalamide]
- level of active CASP-7 (CASP-7): significant increase
- effect on microtubule-polymer mass (tubulin polymerization, TubB) (tubulin beta (TUBb)): moderate effect
- melting point: 271 to 273 °C
- % inhibition (cytotoxicity on normal cells) [1]: 32.6%
- IC50 (CDK-2): 6240 ± 1210 nM
- inhibition at 100 µM [2]: 72.5 to 98.3%
- BCL-2 expression level (BCL-2): down-expression
- p53 expression level (p53): significant up-expression
- IC50 (HCT-116 cell line): 14 nM
- % of DNA fragmentation (MCF-7 cells): remarkable % of DNA fragmentation
- IC50 (EGFR): 780 ± 1250 nM
- IC50 (VEGFR-2): 3170 ± 1000 nM
- IC50 (c-kit): 2850 ± 40 nM
- Bax/BCL-2 ratio (Bax): significant elevation; also recorded: significantly elevated
- Bax expression level (Bax; compared to control): significant up-expression

SMILES: CC(NC(=O)c1cccc(C(=O)NC(C)C(=O)NN=C2C(=O)Nc3ccc(Cl)cc32)c1)C(=O)NN=C1C(=O)Nc2ccc(Cl)cc21 (centres unmarked) [Compound 6, N^1-(1-(-2-(5-chloro-2-oxoindolin-3-ylidene)hydrazinyl)-1-oxopropan-2-yl)-N^3-(1-(-2-(5-chloro-2-oxoindolin-3-ylidene) hydrazinyl)-1-oxopropan-2-yl)isophthalamide]
- melting point: 271 to 273 °C
- inhibition at 100 µM (HCT-116 cell line): 33.1%
- inhibition at 100 µM (A-549 cell line): 48.4%
- inhibition at 100 µM (MCF-7 cell line): 19.6%

SMILES: CC(NC(=O)c1cccc(C(=O)NC(C)c2n[nH]c(=S)o2)c1)c1n[nH]c(=S)o1 (centres unmarked) [Compound 7, N^1,N^3-bis (1-(5-thioxo-4,5-dihydro-1,3,4-oxadiazol-2-yl)ethyl) isophthalamide]
- melting point: 132 to 134 °C
- inhibition at 100 µM [2]: 72.5 to 98.3%
- inhibition at 100 µM (MCF-7 cell line): 77.5%

SMILES: CC(NC(=O)c1cccc(C(=O)NC(C)C(=O)NN=C[C@H](O)[C@@H](O)[C@H](O)CO)c1)C(=O)NN=C[C@H](O)[C@@H](O)[C@H](O)CO (stereo partly drawn) [Compound 8, N^1,N^3-bis (1-oxo-1-(-2-((2S, 3 R, 4 R)-2,3,4,5-tetrahydroxypentylidene) hydrazinyl)propan-2-yl) isophthalamide]
- cytotoxic activity (in words, SAR) [2]: dramatic drop in the anticancer effect

SMILES: CC(NC(=O)c1cccc(C(=O)NC(C)C(=O)NN=C[C@@H](O)[C@H](O)[C@H](O)CO)c1)C(=O)NN=C[C@@H](O)[C@H](O)[C@H](O)CO (stereo partly drawn) [Compound 9, N^1,N^3-bis (1-oxo-1-(-2-((2R, 3S, 4R)-2,3,4,5-tetrahydroxypentylidene) hydrazinyl)propan-2-yl) isophthalamide]
- cytotoxic activity (in words, SAR) [2]: dramatic drop in the anticancer effect

SMILES: CC(NC(=O)c1cccc(C(=O)NC(C)C(=O)NN=Cc2ccc(Cl)cc2)c1)C(=O)NN=Cc1ccc(Cl)cc1 (centres unmarked) [Compound 10, N^1,N^3-bis-(1-(-2-(4-chlorobenzylidene) hydrazinyl)-1-oxopropan-2-yl) isophthalamide]
- melting point: 296 to 298 °C
- cytotoxic activity (in words, SAR) [2]: variable and noticeable increase in the cytotoxic activity

SMILES: CC(NC(=O)c1cccc(C(=O)NC(C)C(=O)NN=Cc2ccc(F)cc2)c1)C(=O)NN=Cc1ccc(F)cc1 (centres unmarked) [Compound 11, N^1,N^3-bis-(1-(-2-(4-fluorobenzylidene) hydrazinyl)-1-oxopropan-2-yl) isophthalamide]
- melting point: 285 to 287 °C
- cytotoxic activity (in words, SAR) [2]: variable and noticeable increase in the cytotoxic activity

SMILES: COc1ccc(C=NNC(=O)C(C)NC(=O)c2cccc(C(=O)NC(C)C(=O)NN=Cc3ccc(OC)cc3)c2)cc1 (centres unmarked) [Compound 12, N^1,N^3-bis-(1-(-2-(4-methoxybenzylidene) hydrazinyl)-1-oxopropan-2-yl) isophthalamide]
- melting point: 273 to 275 °C
- cytotoxic activity (in words, SAR) [2]: variable and noticeable increase in the cytotoxic activity
- inhibition at 100 µM [2]: 72.5 to 98.3%
- IC50 (MCF-7 cell line; MCF-7, MTT, 48-h incubation, read-out: IC50 (mean ± SD)): 51 nM

SMILES: COc1ccc(C=NNC(=O)C(C)NC(=O)c2cccc(C(=O)NC(C)C(=O)NN=Cc3ccc(OC)c(OC)c3)c2)cc1OC (centres unmarked) [Compound 13, N^1,N^3-bis-(1-(-2-(3,4-dimethoxybenzylidene) hydrazinyl)-1-oxopropan-2-yl) isophthalamide]
- melting point: 277 to 279 °C
- cytotoxic activity (in words, SAR) [2]: reduction in the activity

SMILES: CC(NC(=O)c1cccc(C(=O)NC(C)C(=O)NN2C(=O)CSC2c2ccc(Cl)cc2)c1)C(=O)NN1C(=O)CSC1c1ccc(Cl)cc1 (centres unmarked) [Compound 14, N^1,N^3-bis-(1-(2-(4-chlorophenyl)-4-oxothiazolidin-3-ylamino)-1-oxopropan-2-yl) isophthalamide]
- melting point: 218 to 220 °C
- inhibition at 100 µM [2]: 72.5 to 98.3%
- IC50 (A-549 cell line; A-549, MTT, read-out: IC50 (mean ± SD)): 41 nM

SMILES: CC(NC(=O)c1cccc(C(=O)NC(C)C(=O)NN2C(=O)CSC2c2ccc(F)cc2)c1)C(=O)NN1C(=O)CSC1c1ccc(F)cc1 (centres unmarked) [Compound 15, N^1,N^3-bis-(1-(2-(4-fluorophenyl)-4-oxothiazolidin-3-ylamino)-1-oxopropan-2-yl) isophthalamide]
- melting point: 168 to 170 °C

SMILES: COc1cccc2c1C(=O)c1c(O)c3c(c(O)c1C2=O)C[C@@](O)(C(=O)CO)C[C@@H]3O[C@H]1C[C@H](N)[C@H](O)[C@H](C)O1 [Doxorubicin, reference compound]
- IC50 (HCT-116 cell line): 65 nM
